BigSolDB 2.1

SMILES: O=C(Nc1ccccc1)Nc1ccnc(Cl)c1
- solubility (mole fraction) (in acetone, 278.15 K): 0.03
- solubility (mole fraction) (in acetone, 283.15 K): 0.0317
- solubility (mole fraction) (in acetone, 288.15 K): 0.0346
- solubility (mole fraction) (in acetone, 293.15 K): 0.0384
- solubility (mole fraction) (in acetone, 298.15 K): 0.042
- solubility (mole fraction) (in acetone, 303.15 K): 0.0456
- solubility (mole fraction) (in acetone, 308.15 K): 0.0488
- solubility (mole fraction) (in acetone, 313.15 K): 0.0544
- solubility (mole fraction) (in acetone, 318.15 K): 0.0606
- solubility (mole fraction) (in acetone, 323.15 K): 0.0672
- solubility (mole fraction) (in ethanol, 278.15 K): 0.0171
- solubility (mole fraction) (in ethanol, 283.15 K): 0.0193
- solubility (mole fraction) (in ethanol, 288.15 K): 0.0218
- solubility (mole fraction) (in ethanol, 293.15 K): 0.0248
- solubility (mole fraction) (in ethanol, 298.15 K): 0.0282
- solubility (mole fraction) (in ethanol, 303.15 K): 0.0325
- solubility (mole fraction) (in ethanol, 308.15 K): 0.0373
- solubility (mole fraction) (in ethanol, 313.15 K): 0.043
- solubility (mole fraction) (in ethanol, 318.15 K): 0.0495
- solubility (mole fraction) (in ethanol, 323.15 K): 0.0563
- solubility (mole fraction) (in methanol, 278.15 K): 0.0119
- solubility (mole fraction) (in methanol, 283.15 K): 0.0135
- solubility (mole fraction) (in methanol, 288.15 K): 0.0155
- solubility (mole fraction) (in methanol, 293.15 K): 0.0183
- solubility (mole fraction) (in methanol, 298.15 K): 0.0219
- solubility (mole fraction) (in methanol, 303.15 K): 0.0257
- solubility (mole fraction) (in methanol, 308.15 K): 0.0305
- solubility (mole fraction) (in methanol, 313.15 K): 0.0366
- solubility (mole fraction) (in methanol, 318.15 K): 0.0447
- solubility (mole fraction) (in methanol, 323.15 K): 0.0541
- solubility (mole fraction) (in n-propanol, 278.15 K): 0.0171
- solubility (mole fraction) (in n-propanol, 283.15 K): 0.0198
- solubility (mole fraction) (in n-propanol, 288.15 K): 0.0221
- solubility (mole fraction) (in n-propanol, 293.15 K): 0.0257
- solubility (mole fraction) (in n-propanol, 298.15 K): 0.0295
- solubility (mole fraction) (in n-propanol, 303.15 K): 0.034
- solubility (mole fraction) (in n-propanol, 308.15 K): 0.0385
- solubility (mole fraction) (in n-propanol, 313.15 K): 0.0453
- solubility (mole fraction) (in n-propanol, 318.15 K): 0.0515
- solubility (mole fraction) (in n-propanol, 323.15 K): 0.0582
